In the SangsterLogP compilation one finds logP data, which are given here for eleven molecules.

Molecule `Oc1c(Cl)cc(-c2cc(Cl)c(O)c(Cl)c2)cc1Cl` came in with a logP of 5.14.

`Oc1ccc(-c2cc(Cl)ccc2Cl)cc1` had a logP of 4.63.

On to `Oc1ccc(-c2ccc(O)cc2Cl)cc1`, for which the log partition coefficient (logP) stood at 3.37.

Consider `Oc1ccc(-c2cc(Cl)c(Cl)c(Cl)c2Cl)cc1`, for which the lipophilicity (logP) stood at 5.81.

In turn, `Oc1ccc(-c2ccc(Cl)cc2)cc1` gave a logP of 4.04.

For `Oc1ccc(-c2ccc(O)cc2)cc1`, the log partition coefficient (logP) turned out to be 2.66.

In the case of `Oc1ccc(-c2c(Cl)cc(Cl)cc2Cl)cc1`, the lipophilicity (logP) stood at 5.22.

For the molecule `Oc1ccc(-c2c(Cl)cccc2Cl)cc1`, the logP stood at 4.63.

In the case of `Oc1c(Cl)cc(-c2ccc(Cl)cc2)cc1Cl`, the logP was found to be 5.22.

Regarding `Oc1ccc(-c2ccccc2)c(Cl)c1`, the logP came to 4.04.

In turn, `Oc1ccc(-c2ccccc2)cc1` yielded a logP of 3.33.

One may read the logP as the decadic logarithm of the partition coefficient of the neutral form, usually between octanol and water. Read a low logP as a more hydrophilic compound.
